Experimental data from ChEMBL document CHEMBL2177104, “Identification of antitubercular benzothiazinone compounds by ligand-based design” (J Med Chem, 2012).
Values after ≈ are worked out from the molar mass of the structure shown. Active and inactive are the calls of the source. No cut-off for these calls is given here.

Columns and labels:
[1] = Kinetic solubility of the compound at pH 7.4; assay type: physicochemical; details: buffer; for solubility kinetic: read-out: Kinetic_solubility
[2] = system: Mycolicibacterium fortuitum; test: Antimycobacterial activity against Mycobacterium fortuitum B; assay type: functional
[3] = Chemical stability in buffer; assay type: physicochemical
[4] = system: Liver microsomes; test: Metabolic stability in human liver microsomes; assay type: ADME, Microsome
[5] = system: Plasma; test: Metabolic stability in mouse plasma; assay type: ADME, cell-free
[6] = system: Plasma; test: Metabolic stability in human plasma; assay type: ADME, cell-free
[7] = system: Liver; test: Metabolic stability in mouse liver microsomes; assay type: ADME, Microsome
[8] = Cytotoxicity against human HepG2 cells after 24 hrs by MTT assay; assay type: cell-based
[9] = system: Mycolicibacterium smegmatis; test: Antimycobacterial activity against Mycobacterium smegmatis 700084 after 48 hrs by broth microdilution assay; assay type: functional; details: Mycolicibacterium smegmatis, 700084, 48 h
[10] = Cytotoxicity against human HEK293 cells after 24 hrs by MTT assay; assay type: cell-based
[11] = Antiproliferative activity against human HUVEC cells after 72 hrs by methylene blue staining; assay type: cell-based
[12] = Antiproliferative activity against human K562 cells after 72 hrs by electronic cell analysis; assay type: cell-based
[13] = Cytotoxicity against human HeLa cells after 72 hrs by methylene blue staining; assay type: cell-based
[14] = Therapeutic index, ratio of GI50 for human HUVEC cells to MIC for Mycobacterium smegmatis 700084; assay type: cell-based; details: read-out: TI
[15] = Therapeutic index, ratio of GI50 for human K562 cells to MIC for Mycobacterium smegmatis 700084; assay type: cell-based; details: read-out: TI
[16] = Therapeutic index, ratio of CC50 for human HeLa cells to MIC for Mycobacterium smegmatis 700084; assay type: cell-based; details: read-out: TI
[17] = system: Mycolicibacterium smegmatis; test: Ratio of MIC for Mycobacterium smegmatis 700084 in […] to MIC for Mycobacterium smegmatis 700084 in MHB medium; assay type: functional
[18] = system: Mycobacterium tuberculosis; test: Ratio of isoniazid MIC to compound MIC for Mycobacterium tuberculosis H37Rv; assay type: functional
[19] = system: Mycobacterium tuberculosis; test: Antimycobacterial activity against Mycobacterium tuberculosis H37Rv expressing GFP; assay type: functional
[20] = system: Mycolicibacterium aurum; test: Antimycobacterial activity against Mycobacterium aurum SB66; assay type: functional, organism-based

CN(Cc1ccoc1)c1nc(=O)c2cc(C(F)(F)F)cc([N+](=O)[O-])c2s1
Kinetic_solubility [1]: soluble

O=C(c1ccoc1)N1CCN(c2nc(=O)c3cc(C(F)(F)F)cc([N+](=O)[O-])c3s2)CC1
solubility kinetic [1]: 21.8 µM (≈ 9.91 µg/mL)

O=c1nc(N2CCC(F)(F)CC2)sc2c([N+](=O)[O-])cc(C(F)(F)F)cc12
MIC [2]: > 0.1 µg/mL | Stability [3]: 101% | Stability [4]: 61% | Stability [5]: 92% | Stability [6]: 64% | solubility kinetic [1]: 8.1 µM (≈ 3.2 µg/mL) | Stability [7]: 80% | CC50 at 24 h [8]: > 10 µM | MIC [9]: 0.25 µg/mL (≈ 0.632 µM) | CC50 at 24 h [10]: > 10 µM

CN(C(=O)CN1CCN(c2nc(=O)c3cc(C(F)(F)F)cc([N+](=O)[O-])c3s2)CC1)c1ccccc1
MIC [2]: 0.0125 µg/mL (≈ 0.0246 µM) | Stability [3]: 78% | GI50 at 72 h [11]: 18 µM | Stability [4]: 13% | Stability [5]: 115% | Stability [6]: 95% | solubility kinetic [1]: 11.9 µM (≈ 6.04 µg/mL) | GI50 at 72 h [12]: 30 µM | Stability [7]: 2% | CC50 at 24 h [8]: > 10 µM | MIC [9]: 0.015 µg/mL (≈ 0.0296 µM) | CC50 at 24 h [10]: > 10 µM | CC50 at 72 h [13]: 39 µM

O=c1nc(NCc2ccco2)sc2c([N+](=O)[O-])cc(C(F)(F)F)cc12
solubility kinetic [1]: 1.63 µM (≈ 0.605 µg/mL)

Cc1ccc(CNc2nc(=O)c3cc(C(F)(F)F)cc([N+](=O)[O-])c3s2)n1C
MIC [2]: 0.05 µg/mL (≈ 0.126 µM) | Stability [3]: 14% | GI50 at 72 h [11]: 17 µM | Stability [4]: 28% | Stability [5]: 93% | Stability [6]: 108% | GI50 at 72 h [12]: 21 µM | Stability [7]: 37% | CC50 at 24 h [8]: > 10 µM | MIC [9]: 0.125 µg/mL (≈ 0.314 µM) | CC50 at 24 h [10]: > 10 µM | CC50 at 72 h [13]: 48 µM

O=c1nc(N2CCN(c3nccs3)CC2)sc2c([N+](=O)[O-])cc(C(F)(F)F)cc12
MIC [2]: 0.025 µg/mL (≈ 0.0564 µM) | Stability [3]: 98% | Stability [4]: 42% | Stability [5]: 111% | Stability [6]: 99% | Stability [7]: 13% | CC50 at 24 h [8]: > 10 µM | MIC [9]: 0.25 µg/mL (≈ 0.564 µM) | CC50 at 24 h [10]: > 10 µM

CN(C)c1ccc(CN(C)c2nc(=O)c3cc(C(F)(F)F)cc([N+](=O)[O-])c3s2)cc1
MIC [2]: 0.00625 µg/mL (≈ 0.0143 µM) | Stability [3]: 95% | selectivity ratio [14]: > 50000 | GI50 at 72 h [11]: > 50 µM | Stability [4]: 6% | Stability [5]: 104% | Stability [6]: 90% | selectivity ratio [15]: > 50000 | GI50 at 72 h [12]: > 50 µM | Stability [7]: 8% | CC50 at 24 h [8]: > 10 µM | selectivity ratio [16]: > 50000 | MIC [9]: 0.001 µg/mL (≈ 0.00228 µM) | CC50 at 24 h [10]: > 10 µM | CC50 at 72 h [13]: > 50 µM

CN(C)C(=O)C1CCN(c2nc(=O)c3cc(C(F)(F)F)cc([N+](=O)[O-])c3s2)CC1
Kinetic_solubility [1]: soluble

CCCOCC1COC2(CCN(c3nc(=O)c4cc(C(F)(F)F)cc([N+](=O)[O-])c4s3)CC2)O1 (centres undefined)
MIC [2]: 0.0031 µg/mL (≈ 0.00633 µM) | Stability [3]: 99% | GI50 at 72 h [11]: > 50 µM | Stability [4]: 6% | Stability [5]: 103% | Stability [6]: 98% | GI50 at 72 h [12]: > 50 µM | Stability [7]: 9% | CC50 at 24 h [8]: > 10 µM | MIC [9]: 0.004 µg/mL (≈ 0.00817 µM) | CC50 at 24 h [10]: > 10 µM | CC50 at 72 h [13]: 43 µM

CN(c1nc(=O)c2cc(C(F)(F)F)cc([N+](=O)[O-])c2s1)[C@H]1CCN(Cc2ccccc2)C1
Stability [3]: 96% | GI50 at 72 h [11]: 18 µM | Stability [4]: 6% | Stability [5]: 114% | Stability [6]: 92% | solubility kinetic [1]: 2.97 µM (≈ 1.38 µg/mL) | GI50 at 72 h [12]: 30 µM | Stability [7]: 7% | CC50 at 24 h [8]: > 10 µM | MIC [9]: 0.004 µg/mL (≈ 0.00861 µM) | CC50 at 24 h [10]: > 10 µM | CC50 at 72 h [13]: 38 µM

O=c1nc(N2CCC(c3ccccc3)CC2)sc2c([N+](=O)[O-])cc(C(F)(F)F)cc12
MIC [2]: 0.0125 µg/mL (≈ 0.0287 µM) | Ratio [17]: 3 | Stability [3]: 82% | selectivity ratio [14]: > 12500 | GI50 at 72 h [11]: > 50 µM | Stability [4]: 120% | Stability [5]: 71% | Stability [6]: 96% | solubility kinetic [1]: 0.06 µM (≈ 0.0261 µg/mL) | selectivity ratio [15]: > 12500 | GI50 at 72 h [12]: > 50 µM | Stability [7]: 75% | CC50 at 24 h [8]: > 10 µM | selectivity ratio [16]: > 12500 | MIC [9]: 0.004 µg/mL (≈ 0.00919 µM) | CC50 at 24 h [10]: > 10 µM | CC50 at 72 h [13]: > 50 µM

COC(=O)[C@@H]1OC2(CCN(c3nc(=O)c4cc(C(F)(F)F)cc([N+](=O)[O-])c4s3)CC2)O[C@H]1c1ccccc1
MIC [2]: 0.00625 µg/mL (≈ 0.0113 µM) | Stability [3]: 82% | GI50 at 72 h [11]: > 50 µM | Stability [5]: 88% | Stability [6]: 90% | GI50 at 72 h [12]: > 50 µM | CC50 at 24 h [8]: > 10 µM | MIC [9]: 0.015 µg/mL (≈ 0.0272 µM) | CC50 at 24 h [10]: > 10 µM | CC50 at 72 h [13]: > 50 µM

COC(=O)C1CN(c2nc(=O)c3cc(C(F)(F)F)cc([N+](=O)[O-])c3s2)CCC12OC[C@H](C)O2 (some centres undefined)
MIC [2]: 0.0125 µg/mL (≈ 0.0255 µM) | Stability [3]: 98% | GI50 at 72 h [11]: 16 µM | Stability [4]: 81% | Stability [5]: 56% | Stability [6]: 51% | GI50 at 72 h [12]: 22 µM | Stability [7]: 29% | CC50 at 24 h [8]: > 10 µM | MIC [9]: 0.015 µg/mL (≈ 0.0306 µM) | CC50 at 24 h [10]: > 10 µM | CC50 at 72 h [13]: 36 µM

Cc1ccc(CNc2nc(=O)c3cc(C(F)(F)F)cc([N+](=O)[O-])c3s2)o1
solubility kinetic [1]: 1.82 µM (≈ 0.701 µg/mL)

C[C@H]1COC2(CCN(c3nc(=O)c4cc(C(F)(F)F)cc([N+](=O)[O-])c4s3)CC2)O1 [BTZ-043]
MIC [2]: 0.00156 µg/mL (≈ 0.00362 µM) | Stability [3]: 98% | Ratio [18]: 20 | selectivity ratio [14]: 1190 | GI50 at 72 h [11]: 8 µM | Stability [4]: 98% | Stability [5]: 97% | Stability [6]: 107% | solubility kinetic [1]: 6.8 µM (≈ 2.93 µg/mL) | selectivity ratio [15]: 1190 | GI50 at 72 h [12]: 11 µM | Stability [7]: 45% | CC50 at 24 h [8]: > 10 µM | selectivity ratio [16]: > 6250 | MIC [19]: 0.001 µg/mL (≈ 0.00232 µM) | Activity [20]: inactive | MIC [9]: 0.008 µg/mL (≈ 0.0185 µM) | CC50 at 24 h [10]: > 10 µM | CC50 at 72 h [13]: > 50 µM

O=c1nc(NCc2ccc3c(c2)OCCO3)sc2c([N+](=O)[O-])cc(C(F)(F)F)cc12
MIC [2]: 0.012 µg/mL (≈ 0.0273 µM) | Stability [3]: 91% | GI50 at 72 h [11]: 20 µM | Stability [4]: 43% | Stability [5]: 114% | Stability [6]: 86% | GI50 at 72 h [12]: 37 µM | Stability [7]: 32% | CC50 at 24 h [8]: > 10 µM | MIC [9]: 0.004 µg/mL (≈ 0.0091 µM) | CC50 at 24 h [10]: > 10 µM | CC50 at 72 h [13]: 41 µM

CCN(CCN(C)C)c1nc(=O)c2cc(C(F)(F)F)cc([N+](=O)[O-])c2s1
solubility kinetic [1]: 10.6 µM (≈ 4.14 µg/mL)
